Reference: patent US12371428B2 (Exelixis, Inc., priority 2019, dated 2025)
Like-named read-outs stand apart in the source and are kept apart here.

Assays:
Type in all cases: cell-based
[1] = target: Met (phospho-Met, HGF-stimulated PC-3 prostate cancer cells) (Homo sapiens (Human), UniProt P08581); assay: Met autophosphorylation ELISA in PC-3 cells (Example F); settings: cellular activity, read-out: c-Met IC50
Experimental: PC-3 prostate cancer cells (ATCC #CRL-1435) were seeded at 4×10^4 cells/well onto 24-well plates (Greiner #662165), in DMEM (Thermo Fisher #11995-040) containing 10% FBS (Thermo Fisher #26140-079), 1% MEM NEAA (Thermo Fisher #11140-050), 1% GlutaMax (Thermo Fisher #35050-061), and 1% Penicillin Streptomycin (Thermo Fisher #15140-122). PC-3 cells were incubated at 37° C., 5% CO2 for 24 h and then starved for 3 h in serum-free medium. Test compounds were serially diluted to produce an 8-point dose curve in fresh serum-free medium to a final concentration of 0.3% DMSO (vehicle) and added to the cells and incubated for 1 h. Cells were then stimulated with 100 ng/mL recombinant human HGF (R&D Systems #294-HG-250) for 10 min, washed with cold PBS, and immediately lysed with […] of cold 1× lysis buffer [20 mM Tris, 137 mM sodium chloride, 2 mM EDTA, 10% glycerol, 1% NP-40 alternative, 1 mM activated sodium orthovanadate, 1 mM PefaBloc SC (Sigma-Aldrich #11429868001), protease/phosphatase inhibitor tablet (Thermo Fisher #A32959)]. Lysates were clarified by centrifugation and 100 μL/well added into the PathScan phospho-Met (panTyr) Sandwich ELISA (Cell Signaling Technology #7333). Assay was performed according to manufacturer's instructions. Positive control wells (100% activity) contained HGF-stimulated, DMSO-treated cell lysates. Negative control wells (0% activity) contained HGF-stimulated, reference inhibitor-treated cell lysates. IC50 values were calculated by nonlinear regression analysis using a 4-parameter logistic curve fit in ActivityBase XE (IDBS).

[2] = target: KDR (phospho-KDR, VEGF165-stimulated HUVEC cells) (Homo sapiens (Human), UniProt P35968); assay: KDR autophosphorylation ELISA in HUVEC cells (Example G); settings: cellular activity
Experimental: Human umbilical vein endothelial cells or HUVEC (Lonza #C2519A) were seeded at 2×10^4 cells/well onto 96-well plates (Corning #3904), in EGM-2 growth medium (Lonza #CC-3162) containing 1% Penicillin Streptomycin (Thermo Fisher #15140-122). HUVEC cells were incubated at 37° C., 5% CO2 for 24 h and then starved for 24 h in serum-free EBM-2 basal medium (Lonza #CC-3156) containing 1% Penicillin Streptomycin. Test compounds were serially diluted to produce an 8-point dose curve in fresh serum-free medium to a final concentration of 0.3% DMSO (vehicle) and added to the cells and incubated for 1 h. Cells were then stimulated with 100 ng/mL recombinant human VEGF165 (R&D Systems #293-VE-500) for 5 min, washed with cold PBS, and immediately lysed with […] of cold 1× lysis buffer [20 mM Tris, 137 mM sodium chloride, 2 mM EDTA, 10% glycerol, 1% NP-40 alternative, 1 mM activated sodium orthovanadate, 1 mM PefaBloc SC (Sigma-Aldrich #11429868001), protease/phosphatase inhibitor tablet (Thermo Fisher #A32959)]. Lysates were collected and 100 μL/well added into the human phospho-KDR DuoSet IC ELISA (R&D Systems #DYC1766-2). Assay was performed according to manufacturer's instructions and sample phospho-KDR concentrations were extrapolated using human phospho-KDR control (R&D Systems #841421) as a standard. Positive control wells (100% activity) contained VEGF165-stimulated, DMSO-treated cell lysates. Negative control wells (0% activity) contained non-stimulated cell lysates. IC50 values were calculated by nonlinear regression analysis using a 4-parameter logistic curve fit in ActivityBase XE (IDBS).

[3] = target: Mer (phospho-Mer, MERTK-transfected 293A cells) (Homo sapiens (Human), UniProt Q12866); assay: Mer autophosphorylation ELISA in transient transfected 293A cells (Example H); settings: cellular activity
Experimental: 293A cells (Thermo Fisher #R70507) were seeded at 1.5×10^6 cells/well onto 100 mm dish (Greiner #664169), in DMEM (Thermo Fisher #11995-040) containing 10% FBS (Thermo Fisher #26140-079), 1% MEM NEAA (Thermo Fisher #11140-050), 1% GlutaMax (Thermo Fisher #35050-061), and 1% Penicillin Streptomycin (Thermo Fisher #15140-122). 293A cells were incubated at 37° C., 5% CO2 for 24 h and then transfected with […] MERTK DNA (Genecopoeia #EX-Z8208-M02) using TransIT LT1 transfection reagent (Mirus-Bio #MIR2305). After 24 h incubation, the transfected 293A cells were seeded at 1×10^5 cells/well onto 96-well plates (Corning #3904) in DMEM growth medium overnight. Test compounds were serially diluted to produce an 8-point dose curve in fresh serum-free medium to a final concentration of 0.3% DMSO (vehicle) and added to the cells and incubated for 1 h. Cells were then immediately lysed with 150 μL of cold 1× lysis buffer [20 mM Tris, 137 mM sodium chloride, 2 mM EDTA, 10% glycerol, 1% NP-40 alternative, 1 mM activated sodium orthovanadate, 1 mM PefaBloc SC (Sigma-Aldrich #11429868001), protease/phosphatase inhibitor tablet (Thermo Fisher #A32959)]. Lysates were clarified by centrifugation and 50 µL/well added in to the human phospho-Mer DuoSet IC ELISA (R&D Systems #DYC2579-2). Assay was performed according to manufacturer's instructions and sample phospho-Mer concentrations were extrapolated using human phospho-Mer control (R&D Systems #841793) as a standard. Positive control wells (100% activity) contained DMSO-treated cell lysates. Negative control wells (0% activity) contained reference inhibitor-treated cell lysates. IC50 values were calculated by nonlinear regression analysis using a 4-parameter logistic curve fit in ActivityBase XE (JDBS).

[4] = Met autophosphorylation ELISA in PC-3 cells
[5] = KDR autophosphorylation ELISA in HUVEC cells
[6] = Mer autophosphorylation ELISA in transient transfected 293A cells

Sequence of Met (phospho-Met, HGF-stimulated PC-3 prostate cancer cells) (P08581 25-1390): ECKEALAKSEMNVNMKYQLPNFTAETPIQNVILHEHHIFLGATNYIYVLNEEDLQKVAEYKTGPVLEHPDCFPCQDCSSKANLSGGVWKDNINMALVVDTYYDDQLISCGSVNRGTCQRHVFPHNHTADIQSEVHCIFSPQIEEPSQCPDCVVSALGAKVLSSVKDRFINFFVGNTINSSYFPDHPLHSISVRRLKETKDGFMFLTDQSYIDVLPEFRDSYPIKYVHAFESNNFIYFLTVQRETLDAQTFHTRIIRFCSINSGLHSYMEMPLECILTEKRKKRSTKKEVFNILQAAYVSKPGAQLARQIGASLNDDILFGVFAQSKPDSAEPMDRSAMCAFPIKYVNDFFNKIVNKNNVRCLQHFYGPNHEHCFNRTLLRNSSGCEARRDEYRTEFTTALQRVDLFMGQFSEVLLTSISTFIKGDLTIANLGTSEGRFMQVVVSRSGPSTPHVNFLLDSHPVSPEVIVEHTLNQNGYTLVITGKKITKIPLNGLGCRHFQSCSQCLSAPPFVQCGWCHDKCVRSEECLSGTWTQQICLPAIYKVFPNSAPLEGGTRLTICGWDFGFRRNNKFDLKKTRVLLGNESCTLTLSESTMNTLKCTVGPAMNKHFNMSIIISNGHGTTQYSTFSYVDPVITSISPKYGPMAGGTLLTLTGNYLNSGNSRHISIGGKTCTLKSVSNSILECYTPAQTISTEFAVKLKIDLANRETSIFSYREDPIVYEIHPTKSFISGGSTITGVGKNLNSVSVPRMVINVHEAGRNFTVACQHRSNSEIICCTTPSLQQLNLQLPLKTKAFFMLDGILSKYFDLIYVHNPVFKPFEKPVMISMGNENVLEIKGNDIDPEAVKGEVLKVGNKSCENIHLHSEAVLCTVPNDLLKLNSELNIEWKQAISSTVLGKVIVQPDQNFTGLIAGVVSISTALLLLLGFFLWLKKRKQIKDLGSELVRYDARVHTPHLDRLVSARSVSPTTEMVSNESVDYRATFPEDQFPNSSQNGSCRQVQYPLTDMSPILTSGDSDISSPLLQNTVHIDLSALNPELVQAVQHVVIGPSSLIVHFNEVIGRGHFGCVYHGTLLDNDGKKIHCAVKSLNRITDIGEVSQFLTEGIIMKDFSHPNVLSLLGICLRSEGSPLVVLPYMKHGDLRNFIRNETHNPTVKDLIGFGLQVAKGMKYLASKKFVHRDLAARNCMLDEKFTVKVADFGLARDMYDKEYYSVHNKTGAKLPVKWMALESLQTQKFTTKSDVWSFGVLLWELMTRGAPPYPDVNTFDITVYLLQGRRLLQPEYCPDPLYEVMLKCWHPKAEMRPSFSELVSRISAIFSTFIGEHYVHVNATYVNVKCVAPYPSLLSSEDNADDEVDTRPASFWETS
Sequence of Mer (phospho-Mer, MERTK-transfected 293A cells) (Q12866 21-999): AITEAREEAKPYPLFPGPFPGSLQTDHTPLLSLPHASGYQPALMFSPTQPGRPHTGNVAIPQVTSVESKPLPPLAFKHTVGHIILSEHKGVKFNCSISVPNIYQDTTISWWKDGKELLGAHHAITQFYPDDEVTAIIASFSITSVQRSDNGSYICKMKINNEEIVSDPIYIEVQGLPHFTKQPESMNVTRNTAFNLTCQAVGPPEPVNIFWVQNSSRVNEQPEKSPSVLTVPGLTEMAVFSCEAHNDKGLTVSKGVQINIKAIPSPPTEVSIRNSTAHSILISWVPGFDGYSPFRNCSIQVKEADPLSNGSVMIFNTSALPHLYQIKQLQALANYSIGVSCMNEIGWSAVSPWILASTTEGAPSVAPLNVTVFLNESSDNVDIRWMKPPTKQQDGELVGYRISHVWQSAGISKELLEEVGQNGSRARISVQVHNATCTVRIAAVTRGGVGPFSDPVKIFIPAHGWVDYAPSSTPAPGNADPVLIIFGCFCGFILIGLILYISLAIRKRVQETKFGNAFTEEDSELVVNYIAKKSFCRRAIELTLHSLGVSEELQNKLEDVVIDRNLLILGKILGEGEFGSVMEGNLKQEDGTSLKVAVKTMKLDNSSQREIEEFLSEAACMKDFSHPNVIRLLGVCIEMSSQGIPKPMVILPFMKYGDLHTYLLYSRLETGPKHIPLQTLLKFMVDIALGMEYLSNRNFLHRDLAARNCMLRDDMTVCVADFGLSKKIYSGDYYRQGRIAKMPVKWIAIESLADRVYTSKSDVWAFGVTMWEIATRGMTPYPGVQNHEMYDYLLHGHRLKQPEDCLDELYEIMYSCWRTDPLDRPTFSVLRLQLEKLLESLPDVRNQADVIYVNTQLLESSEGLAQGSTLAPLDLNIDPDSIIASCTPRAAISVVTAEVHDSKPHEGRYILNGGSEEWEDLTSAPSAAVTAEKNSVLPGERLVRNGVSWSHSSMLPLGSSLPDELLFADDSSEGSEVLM
Sequence of KDR (phospho-KDR, VEGF165-stimulated HUVEC cells) (P35968 20-1356): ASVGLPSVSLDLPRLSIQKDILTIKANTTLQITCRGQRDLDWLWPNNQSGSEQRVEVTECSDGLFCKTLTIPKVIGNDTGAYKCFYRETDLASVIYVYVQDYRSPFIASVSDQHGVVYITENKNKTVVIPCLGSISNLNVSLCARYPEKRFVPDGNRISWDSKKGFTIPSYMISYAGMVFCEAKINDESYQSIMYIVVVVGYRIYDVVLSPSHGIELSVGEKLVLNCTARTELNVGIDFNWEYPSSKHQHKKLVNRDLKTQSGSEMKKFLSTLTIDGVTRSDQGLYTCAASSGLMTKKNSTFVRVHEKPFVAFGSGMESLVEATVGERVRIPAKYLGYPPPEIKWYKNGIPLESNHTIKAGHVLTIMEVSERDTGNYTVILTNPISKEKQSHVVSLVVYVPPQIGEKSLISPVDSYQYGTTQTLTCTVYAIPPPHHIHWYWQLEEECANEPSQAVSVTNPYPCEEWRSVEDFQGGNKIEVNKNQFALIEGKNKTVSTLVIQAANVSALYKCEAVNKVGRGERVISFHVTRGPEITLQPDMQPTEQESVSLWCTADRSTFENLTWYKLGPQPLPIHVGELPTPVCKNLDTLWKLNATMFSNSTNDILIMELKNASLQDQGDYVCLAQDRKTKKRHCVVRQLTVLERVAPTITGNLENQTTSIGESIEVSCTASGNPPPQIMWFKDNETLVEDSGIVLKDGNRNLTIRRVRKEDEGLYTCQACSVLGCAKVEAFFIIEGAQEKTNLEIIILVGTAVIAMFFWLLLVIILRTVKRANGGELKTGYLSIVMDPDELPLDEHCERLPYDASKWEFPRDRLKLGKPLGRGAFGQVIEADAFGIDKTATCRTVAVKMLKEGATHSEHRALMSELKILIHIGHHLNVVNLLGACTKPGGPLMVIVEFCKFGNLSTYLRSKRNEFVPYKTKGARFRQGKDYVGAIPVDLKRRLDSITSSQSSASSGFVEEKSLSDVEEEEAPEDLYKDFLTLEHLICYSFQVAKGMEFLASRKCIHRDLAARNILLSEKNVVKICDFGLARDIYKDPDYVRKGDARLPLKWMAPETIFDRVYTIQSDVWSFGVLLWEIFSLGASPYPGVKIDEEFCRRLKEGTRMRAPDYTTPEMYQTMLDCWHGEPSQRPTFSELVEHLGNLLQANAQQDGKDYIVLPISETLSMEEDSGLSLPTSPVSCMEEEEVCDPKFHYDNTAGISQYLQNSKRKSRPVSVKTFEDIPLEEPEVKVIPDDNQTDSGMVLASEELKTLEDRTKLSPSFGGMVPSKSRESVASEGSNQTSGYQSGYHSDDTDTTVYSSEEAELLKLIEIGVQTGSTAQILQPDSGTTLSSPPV

Structure (SMILES) | IC50 [1, 4] [nM] | IC50 [2, 5] [nM] | IC50 [3, 6] [nM] | IC50 ([1]; PC-3 cells) [nM] | IC50 ([2]; HUVEC cells) [nM] | IC50 ([3]; transfected 293A cells) [nM]
COc1cnc2c(Oc3ccc(NC(=O)c4c(C)n(C)c(C)c(-c5ccc(F)c(F)c5)c4=O)cc3F)ccnc2c1 [Compound 820, 5-(3,4-difluorophenyl)-N-[3-fluoro-4-[(7-methoxy-1,5-naphthyridin-4-yl)oxy]phenyl]-1,2,6-trimethyl-4-oxopyridine-3-carboxamide] |  |  |  | < 100 | > 300 | < 100
COc1cnc2c(Oc3ccc(NC(=O)c4c(C)n(CC(F)F)cc(-c5ccc(F)c(F)c5)c4=O)cc3F)ccnc2c1 [Compound 817, 1-(2,2-difluoroethyl)-5-(3,4-difluorophenyl)-N-[3-fluoro-4-[(7-methoxy-1,5-naphthyridin-4-yl)oxy]phenyl]-2-methyl-4-oxopyridine-3-carboxamide] |  |  |  | < 100 | > 300 | < 100
COc1cnc2c(Oc3ccc(NC(=O)c4cnc(C)c(-c5ccc(F)cc5OC)c4O)cc3F)ccnc2c1 [Compound 707, N-[3-fluoro-4-[(7-methoxy-1,5-naphthyridin-4-yl)oxy]phenyl]-5-(4-fluoro-2-methoxyphenyl)-4-hydroxy-6-methylpyridine-3-carboxamide] | < 100 | < 100 | < 100 |  |  | 
COc1cc(-c2c(C)nc(C)c(C(=O)Nc3ccc(Oc4ccnc5cc(OC)c(OC)nc45)c(F)c3)c2O)ccc1F [Compound 709, N-[4-[(6,7-dimethoxy-1,5-naphthyridin-4-yl)oxy]-3-fluorophenyl]-5-(4-fluoro-3-methoxyphenyl)-4-hydroxy-2,6-dimethylpyridine-3-carboxamide] | < 100 | < 100 | < 100 |  |  | 
COc1cc2nccc(Oc3ccc(NC(=O)c4cc(C(C)O)c(C)n(-c5ccc(F)cc5)c4=O)cc3F)c2nc1OC (stereo not drawn) [Compound 787, N-[4-[(6,7-dimethoxy-1,5-naphthyridin-4-yl)oxy]-3-fluorophenyl]-1-(4-fluorophenyl)-5-(1-hydroxyethyl)-6-methyl-2-oxopyridine-3-carboxamide] | < 100 | > 300 | < 100 |  |  | 
COc1cc2nccc(Oc3ccc(NC(=O)c4c(C)nnc(-c5ccc(F)cc5C)c4OC)cc3F)c2nc1OC [Compound 773, N-[4-[(6,7-dimethoxy-1,5-naphthyridin-4-yl)oxy]-3-fluorophenyl]-6-(4-fluoro-2-methylphenyl)-5-methoxy-3-methylpyridazine-4-carboxamide] | < 100 | < 100 | < 100 |  |  | 
CCOCc1nc(C)c(-c2ccc(F)cc2C)c(O)c1C(=O)Nc1ccc(Oc2ccnc3cc(OC)cnc23)cc1 [Compound 781, 2-(ethoxymethyl)-5-(4-fluoro-2-methylphenyl)-4-hydroxy-N-[4-[(7-methoxy-1,5-naphthyridin-4-yl)oxy]phenyl]-6-methylpyridine-3-carboxamide] | < 100 | > 300 | < 100 |  |  | 
COc1cnc2c(Oc3c(F)cc(NC(=O)c4c(C)nc(C)c(-c5ccc(F)cc5C)c4O)c(F)c3F)ccnc2c1 [Compound 768, 5-(4-fluoro-2-methylphenyl)-4-hydroxy-2,6-dimethyl-N-[2,3,5-trifluoro-4-[(7-methoxy-1,5-naphthyridin-4-yl)oxy]phenyl]pyridine-3-carboxamide] | < 100 | < 100 | < 100 |  |  | 
COc1cc2nccc(Oc3ccc(NC(=O)c4c(C)n(C(F)F)cc(-c5ccc(F)cc5)c4=O)cc3F)c2nc1OC [Compound 729, 1-(difluoromethyl)-N-[4-[(6,7-dimethoxy-1,5-naphthyridin-4-yl)oxy]-3-fluorophenyl]-5-(4-fluorophenyl)-2-methyl-4-oxopyridine-3-carboxamide] | < 100 | < 100 | < 100 |  |  | 
COc1cc2nccc(Oc3ccc(NC(=O)c4c(C)n(CC(F)(F)F)cc(-c5ccc(F)cc5)c4=O)cc3)c2nc1OC [Compound 789, N-[4-[(6,7-dimethoxy-1,5-naphthyridin-4-yl)oxy]phenyl]-5-(4-fluorophenyl)-2-methyl-4-oxo-1-(2,2,2-trifluoroethyl)pyridine-3-carboxamide] | < 100 | > 300 | < 100 |  |  | 

Results, then the compound that gave them:

IC50 [1, 4] [nM] | IC50 [2, 5] [nM] | IC50 [3, 6] [nM] | IC50 ([1]; PC-3 cells) [nM] | IC50 ([2]; HUVEC cells) [nM] | IC50 ([3]; transfected 293A cells) [nM] | Structure (SMILES)
< 100 | 100 to 300 | < 100 |  |  |  | CCOCc1nc(C)c(-c2ccc(F)cc2C)c(O)c1C(=O)Nc1ccc(Oc2ccnc3cc(OC)c(OC)nc23)cc1 [Compound 780, N-[4-[(6,7-dimethoxy-1,5-naphthyridin-4-yl)oxy]phenyl]-2-(ethoxymethyl)-5-(4-fluoro-2-methylphenyl)-4-hydroxy-6-methylpyridine-3-carboxamide]
< 100 | < 100 | < 100 |  |  |  | COc1cnc2c(Oc3ccc(NC(=O)c4c(C)ncc(-c5ccc(F)cc5C)c4O)cc3F)ccnc2c1 [Compound 719, N-[3-fluoro-4-[(7-methoxy-1,5-naphthyridin-4-yl)oxy]phenyl]-5-(4-fluoro-2-methylphenyl)-4-hydroxy-2-methylpyridine-3-carboxamide]
< 100 | 100 to 300 | < 100 |  |  |  | COc1cc2nccc(Oc3ccc(NC(=O)c4c(C)c(C)c(C)n(-c5ccccc5)c4=O)cc3F)c2nc1OC [Compound 755, N-[4-[(6,7-dimethoxy-1,5-naphthyridin-4-yl)oxy]-3-fluorophenyl]-4,5,6-trimethyl-2-oxo-1-phenylpyridine-3-carboxamide]
< 100 | > 300 | < 100 |  |  |  | COc1cc2nccc(Oc3ccc(NC(=O)c4c(C)n(C)c(C)c(-c5ccc(F)cc5C)c4=O)cc3)c2nc1OC [Compound 791, N-[4-[(6,7-dimethoxy-1,5-naphthyridin-4-yl)oxy]phenyl]-5-(4-fluoro-2-methylphenyl)-1,2,6-trimethyl-4-oxopyridine-3-carboxamide]
< 100 | < 100 | < 100 |  |  |  | COc1cc2nccc(Oc3ccc(NC(=O)c4c(C)n(CC(F)F)cc(-c5ccc(F)cc5C)c4=O)cc3F)c2nc1OC [Compound 786, 1-(2,2-difluoroethyl)-N-[4-[(6,7-dimethoxy-1,5-naphthyridin-4-yl)oxy]-3-fluorophenyl]-5-(4-fluoro-2-methylphenyl)-2-methyl-4-oxopyridine-3-carboxamide]
